Data from patent publication US20240093034A1, “FLUORESCENT DYES” (EXOPHARM LIMITED, priority 2020, published 2024).

Assays:
platelet-derived EVs = assay: Labelling of extracellular vesicles with dyes (Superose 6 HPLC, UV and FLD detection); details: EV + 2 μM dye; for FLD area (EV + dye): 1 hr 37° C., void peak area, 562 nm/583 nm (Ex/Em); for Area FLD/Area UV (EV + dye): higher ratio = greater incorporation
Method: Labelling of extracellular vesicles (EVs) with dyes 1-10 was performed according to the following procedure. 20 μL of platelet-derived EVs were incubated in HPLC vials with or without each dye at a final concentration of 2 μM dye, the dye stock solution being made up in water. For negative controls, an equivalent volume of the diluent solution was added to the EV solution. The sample was mixed gently. Each sample was subsequently incubated for 1 hr at 37° C. Samples were transferred and stored in the autosampler set at 4° C. A batch table was setup that injected unlabelled EVs prior to labelled EVs. A blank injection was run after each labelled EV experiment to ensure there was no carryover. 15 μL of each sample was injected onto a Superose 6 Increase column (3.2/300) from Cytiva. The flow rate was set at 0.15 mL min* The Shimadzu BioHPLC was run in isocratic mode with Buffer A: 1× PBS (phosphate-buffered saline), pH 7.4, 100 nm filtered. The column oven temperature was set at 30° C. Total run duration was 30 min. Data was collected using two detectors. The PDA (UV detector) was set to scan from 190-800 nm and a channel of the FLD (fluorescence detector) was set at 562 nm/583 nm (Ex/Em). Titration experiments were conducted to confirm that excess dye was removed. The areas of the void peaks from the 214 nm absorption and the 583 nm emission were calculated by the LabSolutions software using the manual integration function. To normalise the fluorescent signal, the total fluorescent area was divided by the UV 214 nm area. This ratio can be used to rank each dye, with higher ratios indicative of greater incorporation.

NHDF cells = assay: Labelling of NHDF cells with dyes alone and with EVs (Plexaris) labelled with dyes; format: cell-based, human; details: for incorporation into NHDFs, Plexaris (PLX)+dye (FIG. 6): Example 9, 0.2 μM dye, 1 hr 37° C.; for extent of incorporation into cells versus dye 2 alone (FIG. 4(a)) / extent of incorporation into cells versus PLX+dye 2 (FIG. 4(b)): 0.2 μM; for extent of incorporation into cells versus dye 2 alone (FIG. 4(a)): normalised to dye 2; for extent of incorporation into cells versus PLX+dye 2 (FIG. 4(b)): dye with PLX, normalised to Plexaris+dye 2
Method: (§1) Labelling of NHDF cells with dyes 11-18 alone and EVs labelled with dyes 11-18 was performed according to the following procedure. Each well of a Costar 96 well flat bottom plate was seeded with 5,000 normal human dermal fibroblasts (NHDF; not older than P9) and allowed to attach overnight in full media: fibroblast growth media (Lonza)+2% v/v fetal calf serum. Each dye was diluted in water to a final concentration of 1 mM. The dyes were then diluted to a final concentration of 2 μM in either a base formulation (1× PBS) or a sample of Plexaris (purified EVs derived from platelets) in 1× PBS and incubated at 1 hr at 37° C. The dyes were subsequently added onto the NHDFs at a further 1:10 dilution to a final concentration of 0.2 μM. Cells were incubated for 1 hr at 37° C. and then washed with 1× HBSS (Hank's balanced salt solution) to remove free dye. Plate was imaged using the CLARIOStar spectrophotometer (5×5 matrix mode, average of 25 data points, 3 wells for each dye). The data was normalised against either dye 2 or Plexaris+dye 2. A higher fluorescence indicates a higher amount of incorporation into the cells.
as §1, with “with” for “with dyes 11-18 alone and”, “4, 6, 17, 18, 23, 24 and 25” for “11-18”, “phosphate buffered saline (PBS)” for “water”, “in” for “in either a base formulation (1× PBS) or a sample of”, “in” for “in 1×”, “against” for “against either dye 2 or”

[1] = system: normal human dermal fibroblasts (NHDF); assay: Labelling of human cells with dyes (plate fluorescence); format: cell-based; details: 2 μM dye, 1 hr 37° C., washed with HBSS; higher = more incorporation
Method: Labelling of human cells with dyes 1-10 was performed according to the following procedure. Each well of a Costar 96 well flat bottom plate was seeded with 5,000 normal human dermal fibroblasts (NHDF; not older than P9) and allowed to attach overnight in full media: fibroblast growth media (Lonza)+2% v/v fetal calf serum. Each dye was diluted 1:50 from a stock of 1 mM with 10 mM L-histidine, 150 mM NaCl, pH 6.0, to a final concentration of 20 μM. The dye was subsequently added to full media at a further 1:10 dilution to a final concentration of 2 μM. The media on the cells was subsequently replaced with the freshly prepared full media containing the dye. For negative controls, an equivalent volume of the diluent solution was added to the cell solution. Cells were incubated for 1 hr at 37° C. and then washed with 1 xHBSS (Hank's balanced salt solution) to remove free dye. Plate was imaged using the CLARIOStar spectrophotometer (5x5 matrix mode, average of 25 data points, 3 wells for each dye). A higher fluorescence indicates a higher amount of incorporation into the cells.

Q: How did the “FLD area (EV + dye)” value (platelet-derived EVs) turn out when `CCCCCCCCCCCCCCCCCCCCCCN(C)C(=O)c1ccccc1-c1c2ccc(=[N+](CC)CC)cc-2oc2cc(N(CC)CC)ccc12.[Cl-]` [Dye 4] was run?
A: 1901680

Q: And the “Area FLD/Area UV (EV + dye)” value (platelet-derived EVs)?
A: 2.08

Q: And the “incorporation into NHDFs, Plexaris (PLX)+dye (FIG. 6)” value (“incorporation into NHDFs, Plexaris” below) (NHDF cells)?
A: found to incorporate into NHDFs

Q: And the FLD [1]?
A: 18027

Q: For `CCCCCCCCCCCCCCCCN(CCOC)C(=O)c1ccccc1-c1c2ccc(=[N+](CC)CC)cc-2oc2cc(N(CC)CC)ccc12.[Cl-]` [Dye 7, Rhodamine B N-ethyl methyl ether hexadecanamide], which “FLD area (EV + dye)” value (platelet-derived EVs) is on record?
A: 1456410

Q: And the “Area FLD/Area UV (EV + dye)” value (platelet-derived EVs)?
A: 1.38

Q: And the FLD [1]?
A: 97347

Q: With `CCCCCCCCCCCCCCCCCCN(CCO)C(=O)c1ccccc1-c1c2ccc(=[N+](CC)CC)cc-2oc2cc(N(CC)CC)ccc12.[Cl-]` [Dye 9, Rhodamine B N-(2-hydroxyethyl)octadecanamide] as the compound, how does the “FLD area (EV + dye)” value (platelet-derived EVs) read?
A: 4558422

Q: And the “Area FLD/Area UV (EV + dye)” value (platelet-derived EVs)?
A: 3.33

Q: What about the FLD [1] of the same compound?
A: 83536

Q: Which “FLD area (EV + dye)” value (platelet-derived EVs) does the source give for `CCCCCCCCCCCCCCCCN(C)C(=O)c1ccccc1-c1c2ccc(=[N+](CC)CC)cc-2oc2cc(N(CC)CC)ccc12.[Cl-]` [Dye 1, Rhodamine B N-methylhexadecylamide] here?
A: 2281007

Q: What about the “Area FLD/Area UV (EV + dye)” value (platelet-derived EVs) of the same compound?
A: 2.09

Q: What about the FLD [1] of the same compound?
A: 120641

Q: How did the “incorporation into NHDFs, Plexaris” value (NHDF cells) turn out when `CCCCCCCC/C=C/CCCCCCCCN(C)C(=O)c1ccccc1-c1c2cc/c(=[N+](/CC)CC(F)(F)F)cc-2oc2cc(N(CC)CC(F)(F)F)ccc12.[Cl-]` [Dye 24] was run?
A: found to incorporate into NHDFs

Q: How did the “incorporation into NHDFs, Plexaris” value (NHDF cells) turn out when `CCCCCCCC/C=C\CCCCCCCCN(C)C(=O)c1ccccc1-c1c2cc/c(=[N+](/CC)CC(F)(F)F)cc-2oc2cc(N(CC)CC(F)(F)F)ccc12.[Cl-]` [Dye 25, hexafluoro rhodamine B N-methyloleylamide] was run?
A: found to incorporate into NHDFs

Q: `CCCCCCCCCCCCCCCCCCCCN(C)C(=O)c1ccccc1-c1c2ccc(=[N+](CC)CC)cc-2oc2cc(N(CC)CC)ccc12.[Cl-]` [Dye 3, Rhodamine B N-methylicosaneamide] was tested. Which “FLD area (EV + dye)” value (platelet-derived EVs) did it give?
A: 4270562

Q: And the “Area FLD/Area UV (EV + dye)” value (platelet-derived EVs)?
A: 3.63

Q: What about the FLD [1] of the same compound?
A: 43073

Q: `CCCCCCCCCCCCCCCCCCN(CCOC)C(=O)c1ccccc1-c1c2ccc(=[N+](CC)CC)cc-2oc2cc(N(CC)CC)ccc12.[Cl-]` [Dye 8, Rhodamine B N-ethyl methyl ether octadecanamide] was tested. Which “FLD area (EV + dye)” value (platelet-derived EVs) did it give?
A: 3422473

Q: And the “Area FLD/Area UV (EV + dye)” value (platelet-derived EVs)?
A: 2.92

Q: What about the FLD [1] of the same compound?
A: 83404

Q: What does the source list for `CCCCCCCCCCCCCCCCCCCN(C)C(=O)c1ccccc1-c1c2ccc(=[N+](CC)CC)cc-2oc2cc(N(CC)CC)ccc12.[Cl-]` [Dye 12, Rhodamine B N-methylnonadecylamide]?
A: extent of incorporation into cells versus dye 2 alone (FIG. 4(a)) (NHDF cells): incorporated to the cells to a larger extent; extent of incorporation into cells versus PLX+dye 2 (FIG. 4(b)) (NHDF cells): incorporated to the cells to a larger extent

Q: Which “incorporation into NHDFs, Plexaris” value (NHDF cells) does the source give for `CCCCCCCCCCCCCCCCCCN(C)C(=O)c1ccccc1-c1c2cc/c(=[N+](/CC)CC(F)(F)F)cc-2oc2cc(N(CC)CC(F)(F)F)ccc12.[Cl-]` [Dye 23, hexafluoro Rhodamine B N-methyloctadecylamide] here?
A: found to incorporate into NHDFs

Q: How did the “FLD area (EV + dye)” value (platelet-derived EVs) turn out when `CCCCCCCCCCCCCCCCCCCCN(CCOC)C(=O)c1ccccc1-c1c2ccc(=[N+](CC)CC)cc-2oc2cc(N(CC)CC)ccc12.[Cl-]` [Dye 10, Rhodamine B N-ethyl methyl ether icosaneamide] was run?
A: 2826617

Q: And the “Area FLD/Area UV (EV + dye)” value (platelet-derived EVs)?
A: 2.55

Q: What about the FLD [1] of the same compound?
A: 45943

Q: With `CCCCCCCCCCCCCCN(CCCCC)C(=O)c1ccccc1-c1c2ccc(=[N+](CC)CC)cc-2oc2cc(N(CC)CC)ccc12.[Cl-]` [Dye 5, Rhodamine B N-pentyltetradecanamide] as the compound, how does the “FLD area (EV + dye)” value (platelet-derived EVs) read?
A: 2405326

Q: And the “Area FLD/Area UV (EV + dye)” value (platelet-derived EVs)?
A: 1.25

Q: What about the FLD [1] of the same compound?
A: 106332

Q: With `CCCCCCCCCCCCCCCCCCN(CC)C(=O)c1ccccc1-c1c2ccc(=[N+](CC)CC)cc-2oc2cc(N(CC)CC)ccc12.[Cl-]` [Dye 15, Rhodamine B N-ethyloctadecylamide] as the compound, how does the “extent of incorporation into cells versus dye 2 alone (FIG. 4(a))” value (NHDF cells) read?
A: incorporated to the cells to a larger extent

Q: What about the “extent of incorporation into cells versus PLX+dye 2 (FIG. 4(b))” value (NHDF cells) of the same compound?
A: incorporated to the cells to a larger extent

Q: What does the source list for `CCCCCCCC/C=C/CCCCCCCCN(C)C(=O)c1ccccc1-c1c2ccc(=[N+](CC)CC)cc-2oc2cc(N(CC)CC)ccc12` [Dye 18, Rhodamine B N-methylelaidylamide]?
A: incorporation into NHDFs, Plexaris (PLX)+dye (FIG. 6) (NHDF cells): found to incorporate into NHDFs; extent of incorporation into cells versus dye 2 alone (FIG. 4(a)) (NHDF cells): incorporated to the cells to a larger extent; extent of incorporation into cells versus PLX+dye 2 (FIG. 4(b)) (NHDF cells): incorporated to the cells to a larger extent

Q: `CCCCCCCCCCCCCCCCCCN(CCCCC)C(=O)c1ccccc1-c1c2ccc(=[N+](CC)CC)cc-2oc2cc(N(CC)CC)ccc12.[Cl-]` [Dye 6, Rhodamine B N-pentyloctadecanamide] was tested. Which “FLD area (EV + dye)” value (platelet-derived EVs) did it give?
A: 4247970

Q: And the “Area FLD/Area UV (EV + dye)” value (platelet-derived EVs)?
A: 2.36

Q: And the “incorporation into NHDFs, Plexaris” value (NHDF cells)?
A: found to incorporate into NHDFs

Q: What about the FLD [1] of the same compound?
A: 20270

Q: Which results are given for `CCCCCCCCCCCCCCCCCCN(CCC)C(=O)c1ccccc1-c1c2ccc(=[N+](CC)CC)cc-2oc2cc(N(CC)CC)ccc12.[Cl-]` [Dye 14, Rhodamine B N-propyloctadecylamide]?
A: extent of incorporation into cells versus dye 2 alone (FIG. 4(a)) (NHDF cells): incorporated to the cells to a larger extent; extent of incorporation into cells versus PLX+dye 2 (FIG. 4(b)) (NHDF cells): incorporated to the cells to a larger extent

Q: For `CCCCCCCC/C=C\CCCCCCCCN(C)C(=O)c1ccccc1-c1c2ccc(=[N+](CC)CC)cc-2oc2cc(N(CC)CC)ccc12` [Dye 17, Rhodamine B N-methyloleylamide], which “incorporation into NHDFs, Plexaris” value (NHDF cells) is on record?
A: found to incorporate into NHDFs

Q: And the “extent of incorporation into cells versus dye 2 alone (FIG. 4(a))” value (NHDF cells)?
A: incorporated to the cells to a larger extent

Q: What about the “extent of incorporation into cells versus PLX+dye 2 (FIG. 4(b))” value (NHDF cells) of the same compound?
A: incorporated to the cells to a larger extent
